The record followed here is ChEMBL document CHEMBL5715936, “Selective Itk inhibitors block T-cell activation and murine lung inflammation” (Biochemistry, 2004).

Test [1] has as its target Epidermal growth factor receptor (Homo sapiens, UniProt P00533). Nature of the test: Inhibition of EGFR (unknown origin) using GST-SLP-76 as peptide substrate incubated for 10 mins in presence of [gamma-33P]ATP by scintillation counter assay.
Test [2] addresses Tyrosine-protein kinase SYK (Homo sapiens, UniProt P43405). Nature of the test: Inhibition of Syk (unknown origin) using GST-SLP-76 as peptide substrate incubated for 10 mins in presence of [gamma-33P]ATP by scintillation counter assay.
In test [3] the target is Cyclin-dependent kinase 2 (Homo sapiens, UniProt P24941). As to the kind of experiment: Inhibition of Cdk2 (unknown origin) using GST-SLP-76 as peptide substrate incubated for 10 mins in presence of [gamma-33P]ATP by scintillation counter assay.
Test [4] has as its target T1, Cytoplasmic tyrosine-protein kinase BMX (Homo sapiens, UniProt P51813).
T1 sequence (P51813 whole entry): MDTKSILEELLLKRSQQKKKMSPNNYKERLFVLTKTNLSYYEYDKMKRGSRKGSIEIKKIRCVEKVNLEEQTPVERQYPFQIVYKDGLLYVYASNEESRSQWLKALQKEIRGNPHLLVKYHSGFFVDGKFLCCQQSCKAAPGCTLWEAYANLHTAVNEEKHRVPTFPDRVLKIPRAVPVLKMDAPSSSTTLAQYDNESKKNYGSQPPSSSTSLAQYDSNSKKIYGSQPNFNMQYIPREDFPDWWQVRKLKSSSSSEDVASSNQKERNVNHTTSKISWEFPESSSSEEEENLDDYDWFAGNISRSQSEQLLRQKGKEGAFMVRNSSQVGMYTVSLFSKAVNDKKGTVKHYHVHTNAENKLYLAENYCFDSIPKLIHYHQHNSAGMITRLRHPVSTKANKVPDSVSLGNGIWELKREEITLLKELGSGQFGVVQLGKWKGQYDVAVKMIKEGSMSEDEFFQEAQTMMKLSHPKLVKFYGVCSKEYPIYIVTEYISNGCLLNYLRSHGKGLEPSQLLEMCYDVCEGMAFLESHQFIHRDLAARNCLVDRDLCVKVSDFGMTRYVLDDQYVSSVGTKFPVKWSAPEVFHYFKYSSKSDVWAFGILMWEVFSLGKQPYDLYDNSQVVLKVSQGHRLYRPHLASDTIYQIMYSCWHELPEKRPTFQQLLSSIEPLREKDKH
As to the kind of experiment: Inhibition of Bmx (unknown origin) using GST-SLP-76 as peptide substrate incubated for 10 mins in presence of [gamma-33P]ATP by scintillation counter assay.

The next test concerns the target Protein kinase C (PKC). As to the kind of experiment: Inhibition of PKC (unknown origin) using GST-SLP-76 as peptide substrate incubated for 10 mins in presence of [gamma-33P]ATP by scintillation counter assay. The test is classed as protein assay, Homo sapiens.
Test [5] has as its target T2, Tyrosine-protein kinase Tec (Homo sapiens, UniProt P42680).
T2 sequence (P42680 whole entry): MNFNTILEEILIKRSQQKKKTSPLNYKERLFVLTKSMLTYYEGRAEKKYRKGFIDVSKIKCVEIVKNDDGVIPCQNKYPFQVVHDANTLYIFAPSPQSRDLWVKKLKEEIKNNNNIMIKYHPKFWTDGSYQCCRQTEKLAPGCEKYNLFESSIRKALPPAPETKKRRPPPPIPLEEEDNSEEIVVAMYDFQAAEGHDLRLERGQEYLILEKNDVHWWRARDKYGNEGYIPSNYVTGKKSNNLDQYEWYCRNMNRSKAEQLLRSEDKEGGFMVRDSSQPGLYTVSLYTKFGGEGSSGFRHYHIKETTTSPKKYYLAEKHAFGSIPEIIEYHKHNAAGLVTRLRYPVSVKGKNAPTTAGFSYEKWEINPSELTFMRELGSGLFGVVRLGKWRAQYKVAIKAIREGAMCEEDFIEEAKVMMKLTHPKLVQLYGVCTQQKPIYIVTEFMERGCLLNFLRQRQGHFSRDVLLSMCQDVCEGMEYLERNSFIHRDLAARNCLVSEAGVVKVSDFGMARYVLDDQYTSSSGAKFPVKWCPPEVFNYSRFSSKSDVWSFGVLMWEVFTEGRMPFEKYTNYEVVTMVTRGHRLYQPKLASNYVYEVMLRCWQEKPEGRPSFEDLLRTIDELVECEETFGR
Nature of the test: Inhibition of Tec (unknown origin) using GST-SLP-76 as peptide substrate incubated for 10 mins in presence of [gamma-33P]ATP by scintillation counter assay.

In test [6] the target is cAMP-dependent protein kinase (PKA) (Homo sapiens, UniProt P22694+P17612+P22612). As to the kind of experiment: Inhibition of PKA (unknown origin) using GST-SLP-76 as peptide substrate incubated for 10 mins in presence of [gamma-33P]ATP by scintillation counter assay. It is filed as protein assay.
Test [7] addresses T3, Tyrosine-protein kinase TXK (Homo sapiens, UniProt P42681).
T3 sequence (P42681 whole entry): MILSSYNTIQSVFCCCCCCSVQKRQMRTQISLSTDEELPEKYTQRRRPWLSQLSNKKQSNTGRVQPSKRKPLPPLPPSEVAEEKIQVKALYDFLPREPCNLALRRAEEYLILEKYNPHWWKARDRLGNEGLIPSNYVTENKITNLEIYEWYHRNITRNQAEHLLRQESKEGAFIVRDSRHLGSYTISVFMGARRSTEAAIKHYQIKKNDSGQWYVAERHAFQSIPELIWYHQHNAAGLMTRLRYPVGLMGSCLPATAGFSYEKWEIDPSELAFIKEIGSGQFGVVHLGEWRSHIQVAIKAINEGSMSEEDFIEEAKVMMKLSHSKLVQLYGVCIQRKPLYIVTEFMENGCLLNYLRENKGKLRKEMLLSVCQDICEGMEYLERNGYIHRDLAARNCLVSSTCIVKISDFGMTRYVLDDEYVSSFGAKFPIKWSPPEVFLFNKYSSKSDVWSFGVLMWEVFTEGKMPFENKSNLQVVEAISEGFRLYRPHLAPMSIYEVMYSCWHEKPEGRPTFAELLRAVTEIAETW
Nature of the test: Inhibition of Txk (unknown origin) using GST-SLP-76 as peptide substrate incubated for 10 mins in presence of [gamma-33P]ATP by scintillation counter assay.

Test [8] concerns the target T4, Tyrosine-protein kinase ZAP-70 (Homo sapiens, UniProt P43403).
T4 sequence (P43403 whole entry): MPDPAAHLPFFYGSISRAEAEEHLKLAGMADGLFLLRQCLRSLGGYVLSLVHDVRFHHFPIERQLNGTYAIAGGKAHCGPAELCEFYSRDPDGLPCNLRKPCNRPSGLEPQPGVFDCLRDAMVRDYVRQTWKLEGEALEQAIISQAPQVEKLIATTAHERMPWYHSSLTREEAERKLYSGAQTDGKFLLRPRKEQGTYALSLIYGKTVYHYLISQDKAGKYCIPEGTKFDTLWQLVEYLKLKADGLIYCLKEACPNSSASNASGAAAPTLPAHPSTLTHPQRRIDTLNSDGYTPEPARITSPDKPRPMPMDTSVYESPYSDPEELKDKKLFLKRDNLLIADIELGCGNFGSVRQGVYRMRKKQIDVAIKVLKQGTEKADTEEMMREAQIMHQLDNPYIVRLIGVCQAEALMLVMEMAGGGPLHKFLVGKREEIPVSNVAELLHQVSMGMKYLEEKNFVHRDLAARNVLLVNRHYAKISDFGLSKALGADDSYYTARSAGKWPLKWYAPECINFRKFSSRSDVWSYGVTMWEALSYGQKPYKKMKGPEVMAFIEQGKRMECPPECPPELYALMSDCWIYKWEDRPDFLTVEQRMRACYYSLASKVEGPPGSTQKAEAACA
Nature of the test: Inhibition of ZAP-70 (unknown origin) using GST-SLP-76 as peptide substrate incubated for 10 mins in presence of [gamma-33P]ATP by scintillation counter assay.

Test [9] addresses Tyrosine-protein kinase Lck (Homo sapiens, UniProt P06239). As to the kind of experiment: Inhibition of Lck (unknown origin) using GST-SLP-76 as peptide substrate incubated for 10 mins in presence of [gamma-33P]ATP by scintillation counter assay.
Test [10] deals with Mitogen-activated protein kinase 3 (Homo sapiens, UniProt P27361). As to the kind of experiment: Inhibition of ERK-1 (unknown origin) using GST-SLP-76 as peptide substrate incubated for 10 mins in presence of [gamma-33P]ATP by scintillation counter assay.
Chain of Mitogen-activated protein kinase 3 (P27361 whole entry): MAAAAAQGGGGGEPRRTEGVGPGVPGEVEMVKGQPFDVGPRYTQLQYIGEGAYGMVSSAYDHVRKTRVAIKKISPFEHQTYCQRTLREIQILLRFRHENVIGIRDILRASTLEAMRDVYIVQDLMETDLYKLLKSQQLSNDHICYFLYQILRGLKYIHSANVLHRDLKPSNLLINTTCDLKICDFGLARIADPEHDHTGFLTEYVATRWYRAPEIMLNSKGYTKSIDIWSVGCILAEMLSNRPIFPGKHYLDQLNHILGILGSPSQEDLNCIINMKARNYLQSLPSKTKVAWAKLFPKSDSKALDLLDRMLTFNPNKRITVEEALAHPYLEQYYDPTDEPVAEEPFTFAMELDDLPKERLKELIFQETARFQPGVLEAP
In test [11] the target is Tyrosine-protein kinase BTK (Homo sapiens, UniProt Q06187). As to the kind of experiment: Inhibition of Btk (unknown origin) using GST-SLP-76 as peptide substrate incubated for 10 mins in presence of [gamma-33P]ATP by scintillation counter assay.
Chain of Tyrosine-protein kinase BTK (Q06187 whole entry): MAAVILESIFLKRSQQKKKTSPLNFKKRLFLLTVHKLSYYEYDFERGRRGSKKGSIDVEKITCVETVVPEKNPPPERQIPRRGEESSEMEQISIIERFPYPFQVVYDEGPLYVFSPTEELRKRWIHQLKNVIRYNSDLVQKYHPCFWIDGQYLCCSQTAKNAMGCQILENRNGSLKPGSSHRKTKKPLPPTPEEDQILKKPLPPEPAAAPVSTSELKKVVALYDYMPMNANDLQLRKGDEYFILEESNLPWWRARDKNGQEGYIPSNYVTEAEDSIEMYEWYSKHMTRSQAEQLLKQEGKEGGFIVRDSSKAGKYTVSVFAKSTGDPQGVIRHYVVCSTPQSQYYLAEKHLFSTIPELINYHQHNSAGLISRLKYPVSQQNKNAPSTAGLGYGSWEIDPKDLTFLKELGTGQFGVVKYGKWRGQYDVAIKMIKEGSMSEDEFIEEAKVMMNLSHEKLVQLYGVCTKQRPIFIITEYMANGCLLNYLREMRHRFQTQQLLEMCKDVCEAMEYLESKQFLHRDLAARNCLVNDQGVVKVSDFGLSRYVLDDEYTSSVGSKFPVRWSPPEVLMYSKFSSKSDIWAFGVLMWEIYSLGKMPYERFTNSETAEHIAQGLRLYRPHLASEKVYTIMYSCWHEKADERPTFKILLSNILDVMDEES

SMILES strings stand for the structures.

Chain of Epidermal growth factor receptor (P00533 whole entry): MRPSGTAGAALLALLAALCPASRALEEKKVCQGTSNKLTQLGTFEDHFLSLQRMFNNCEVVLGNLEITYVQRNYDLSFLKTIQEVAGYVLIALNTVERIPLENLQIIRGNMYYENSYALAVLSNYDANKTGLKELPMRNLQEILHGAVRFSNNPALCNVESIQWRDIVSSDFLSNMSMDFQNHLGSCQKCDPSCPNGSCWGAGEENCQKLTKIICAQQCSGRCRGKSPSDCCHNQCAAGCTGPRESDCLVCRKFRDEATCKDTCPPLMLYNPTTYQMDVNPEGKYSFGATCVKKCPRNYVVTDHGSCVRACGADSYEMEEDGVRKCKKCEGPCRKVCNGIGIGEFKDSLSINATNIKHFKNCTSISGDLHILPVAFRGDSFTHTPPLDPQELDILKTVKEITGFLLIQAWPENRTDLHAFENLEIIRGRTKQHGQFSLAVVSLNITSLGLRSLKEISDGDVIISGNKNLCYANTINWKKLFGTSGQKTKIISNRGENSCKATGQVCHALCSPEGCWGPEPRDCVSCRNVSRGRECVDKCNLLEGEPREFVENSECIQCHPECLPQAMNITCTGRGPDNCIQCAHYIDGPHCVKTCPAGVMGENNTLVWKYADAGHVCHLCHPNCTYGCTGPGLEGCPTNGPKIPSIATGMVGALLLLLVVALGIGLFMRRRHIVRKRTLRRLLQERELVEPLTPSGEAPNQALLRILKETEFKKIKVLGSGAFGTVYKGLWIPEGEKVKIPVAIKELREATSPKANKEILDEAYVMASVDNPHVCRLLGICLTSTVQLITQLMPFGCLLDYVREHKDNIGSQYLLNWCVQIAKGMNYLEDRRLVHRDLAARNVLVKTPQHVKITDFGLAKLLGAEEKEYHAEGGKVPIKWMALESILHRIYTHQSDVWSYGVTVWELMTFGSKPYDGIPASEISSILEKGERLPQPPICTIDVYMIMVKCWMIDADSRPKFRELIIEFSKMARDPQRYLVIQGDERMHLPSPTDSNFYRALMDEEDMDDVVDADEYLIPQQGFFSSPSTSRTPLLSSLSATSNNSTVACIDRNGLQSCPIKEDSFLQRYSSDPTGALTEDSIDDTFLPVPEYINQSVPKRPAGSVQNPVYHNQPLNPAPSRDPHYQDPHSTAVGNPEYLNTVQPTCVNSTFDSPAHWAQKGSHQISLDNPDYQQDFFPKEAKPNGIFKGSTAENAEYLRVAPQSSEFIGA
Chain of Tyrosine-protein kinase Lck (P06239 whole entry): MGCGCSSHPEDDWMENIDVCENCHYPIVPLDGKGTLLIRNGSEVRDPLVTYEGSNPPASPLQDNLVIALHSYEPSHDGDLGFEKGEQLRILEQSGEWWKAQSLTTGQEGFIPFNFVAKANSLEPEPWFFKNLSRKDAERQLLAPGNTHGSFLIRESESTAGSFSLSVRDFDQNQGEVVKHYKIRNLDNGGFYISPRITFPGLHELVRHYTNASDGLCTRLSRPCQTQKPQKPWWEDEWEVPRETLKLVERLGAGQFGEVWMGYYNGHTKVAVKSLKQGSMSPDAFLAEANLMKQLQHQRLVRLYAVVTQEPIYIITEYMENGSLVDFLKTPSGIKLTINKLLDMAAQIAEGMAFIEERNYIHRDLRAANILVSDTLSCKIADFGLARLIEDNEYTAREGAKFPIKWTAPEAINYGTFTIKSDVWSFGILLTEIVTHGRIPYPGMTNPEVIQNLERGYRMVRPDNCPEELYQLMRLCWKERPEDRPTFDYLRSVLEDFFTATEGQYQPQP

As usually defined, the IC50 is the midpoint of a concentration-inhibition curve. As to `CC(=O)N1CCN(C(=O)c2cccc(CSc3cnc(NC(=O)c4ccc(N(C)C)cc4)s3)c2)CC1`, the IC50 in test [1] is > 50 µM; in test [2], > 50 µM; in [3], 27 µM; in [4] it was 20 µM; on Protein kinase C (PKC), > 50 µM; in [5], > 50 µM. In addition, the half-maximal inhibitory concentration (IC50) in test [6] is > 50 µM; in test [7], > 50 µM; in test [8], > 50 µM; in test [9], > 25 µM; in test [10], > 50 µM; in test [11] it was 49 µM.
